Patent US9937115B2, “Oral care compositions with improved flavor” (priority 2010, dated 2018)
Where a name gives a salt, the structure may show the parent alone. Read-outs that look alike come from different tables or passages of the source.

Molecular target: T1, TRPA1 receptor (Homo sapiens, UniProt O75762)
T1 construct: expressed in transfected cells; host or cells: HEK cell line
Test: cell-based
Parameters: activation: dose or concentration left out as unconfirmed
Details: for activation at 100 µM: direct addition, read-out: TRPA1 Direct addition
Method: The term “TRPA1 activator” as used herein refers to any component which at a concentration of 1 mM gives a calcium flux count of at least 1000 counts above the background level of calcium present in the cell according to the FLIPR method as discussed herein. The term “count” is defined as the change in fluorescence of the transfected cell lines due to the influx of calcium across the cell membrane, which reacts with the calcium sensitive dye present within the cells.
In order to select TRPA1 agonists that would be preferred for reducing off-tasting chemical components found in oral care compositions, calcium flux receptor activity on the TRPA1 was utilized as the criteria for selection of actives. With allyl isothiocyanate as the TRPA1 positive control, molecules that directly activated the TRPA1 receptor were screened in dimethylsulfoxide (DMSO). Pure molecules of each material were dissolved in DMSO at a concentration of 100 micormolar and then added to an HEK cell line containing the TRPA1 receptor. If they are TRPA1 agonists, they will cause a calcium flux in the cell which fluoresces and may then be measured using a FLIPR machine.

[1] = HEK293, percentage of the control (allyl isothiocyanate) calcium count, material dissolved in DMSO at 100 micromolar, HEK cells with TRPA1
[2] = HEK293, percentage of the control (allyl isothiocyanate) calcium count, material dissolved in DMSO at 100 micromolar, HEK cells with TRPA1, pre-incubation, read-out: TRPA1 Pre-incubation
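Throughout, for TRPA1 Pre-incubation: values above 100 mean more active than the control.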

T1 sequence (O75762 whole entry): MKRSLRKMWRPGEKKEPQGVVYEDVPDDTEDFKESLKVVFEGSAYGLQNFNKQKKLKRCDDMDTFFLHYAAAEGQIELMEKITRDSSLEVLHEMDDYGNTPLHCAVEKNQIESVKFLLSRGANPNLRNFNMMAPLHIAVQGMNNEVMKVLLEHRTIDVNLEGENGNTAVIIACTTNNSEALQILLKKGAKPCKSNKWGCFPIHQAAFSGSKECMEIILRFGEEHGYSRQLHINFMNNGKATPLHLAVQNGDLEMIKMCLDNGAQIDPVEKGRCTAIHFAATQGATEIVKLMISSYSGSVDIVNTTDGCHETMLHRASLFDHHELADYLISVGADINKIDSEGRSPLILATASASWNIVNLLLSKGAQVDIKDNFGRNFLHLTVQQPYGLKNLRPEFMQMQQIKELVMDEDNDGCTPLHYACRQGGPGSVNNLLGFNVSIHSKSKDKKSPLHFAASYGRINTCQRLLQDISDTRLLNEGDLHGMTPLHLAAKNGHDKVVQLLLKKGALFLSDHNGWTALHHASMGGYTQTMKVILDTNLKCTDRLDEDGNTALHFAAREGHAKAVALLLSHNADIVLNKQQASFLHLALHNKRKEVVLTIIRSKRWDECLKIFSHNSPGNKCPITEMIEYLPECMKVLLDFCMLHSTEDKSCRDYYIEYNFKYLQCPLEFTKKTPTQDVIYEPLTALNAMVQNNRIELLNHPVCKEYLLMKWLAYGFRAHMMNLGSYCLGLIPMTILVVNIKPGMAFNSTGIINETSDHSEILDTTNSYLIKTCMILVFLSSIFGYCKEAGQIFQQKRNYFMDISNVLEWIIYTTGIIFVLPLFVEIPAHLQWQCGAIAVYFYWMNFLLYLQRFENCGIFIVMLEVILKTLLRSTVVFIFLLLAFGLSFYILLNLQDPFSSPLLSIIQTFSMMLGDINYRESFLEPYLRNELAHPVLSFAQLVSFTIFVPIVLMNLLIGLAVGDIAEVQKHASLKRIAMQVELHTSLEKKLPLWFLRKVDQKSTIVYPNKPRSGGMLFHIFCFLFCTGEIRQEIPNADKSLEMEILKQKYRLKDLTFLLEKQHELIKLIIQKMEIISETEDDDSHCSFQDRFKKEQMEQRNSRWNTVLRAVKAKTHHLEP

SMILES	activation at 100 µM [1] [%]	activation [2] [%]	other results
CCOC(=O)CC(O)(CC(=O)OCC)C(=O)OCC [Triethyl Citrate]	-9.43	82.2	
CCC/C=C/C=O [trans-2-Hexenal]	1.62	103	
CC(C)C(=O)OCCOc1ccccc1 [Phenoxyethyl Isobutyrate]	-7.84	36.8	
CC(=O)OC/C=C(\C)CCC=C(C)C [Geranyl Acetate]	0.33	63.2	
C=CC(C)(O)CCC=C(C)C (stereo not drawn) [Linalool]	-1.58	44.8	
CC(C)=CCC/C(C)=C/CO [Geraniol]	5.19	113	
CCCCCCC(C)=O [Material 2-Octanone, 2-Octanone]	-17.1	93.3	
CCCCCCC(=O)OCC [Ethyl Heptanoate]	0.23	79	
CCCCCCCCCCCC(=O)O [Lauric Acid]	-2.82	96	
O=Cc1ccccc1 [Benzaldehyde]	-1.46	90.1	
CCCC(C)=O [Material 2-Pentanone, 2-Pentanone]	0.73	90.1	
CCCCCC(=O)O [Hexanoic Acid]	-0.4	67.2	
COC(OC)c1ccccc1 [Benzaldehyde Dimethyl Acetal]			activation (HEK293, read-out: TRPA1 Direct addition): -0.68%; activation (HEK293, read-out: TRPA1 Pre-incubation): 120%
CCCCCC/C=C/C=C/C=O [trans,trans-2,4-Undecadienal]	122	-3.93	
COc1cccc(OC)c1 [M-Dimethoxybenzene]	-0.59	80.6	
COc1ccccc1O [Guaiacol]	-0.08	87.7	
CCC(C)CO (stereo not drawn) [2-Methyl-1-Butanol]	-1.19	71.6	
CCOC(=O)c1ccccc1 [Ethyl Benzoate]	-0.07	60.3	
CC1=C(O)C(=O)OC1C (stereo not drawn) [4,5-Dimethyl-3-Hydroxy-2,5-Dihydrofuran-2-one]	0.18	89.1	
CCCC(=O)OCC [Ethyl Butyrate]	-0.32	87	
COc1nccnc1C [2-Methoxy-3-Methylpyrazine]	-0.83	84.7	
C=CCc1ccc(OC(=O)c2ccccc2)c(OC)c1 [Eugenol benzoate]	22.9	57.3	
CCCCCCCC(C)=O [Material 2-Nonanone, 2-Nonanone]	0.36	77.2	
O=S(=O)([O-])[O-].[Zn+2] [Zinc Sulfate]			TRPA1 Direct addition: 29.79%; TRPA1 Pre-incubation: 21.7%
CCCCCCCC(=O)OCC [Ethyl Octanoate]	-0.14	87.3	
C=CCc1cc(OC)c(O)c(OC)c1 [4-Allyl-2,6-Dimethoxyphenol]	39.2	15.5	
Cc1coc2c1CCC(C)C2 (stereo not drawn) [4,5,6,7-Tetrahydro-3,6-Dimethylbenzofuran]	0.57	84.8	
COC(Cc1ccccc1)OC [Phenylacetaldehyde Dimethyl Acetal]	-14.8	81.4	
C=CCN=C=S [Allyl Isothiocyanate, reference compound]		21.6	% of AITC Receptor Activation (from Data in Table II) (restated in Table III from Table II): 100%
CCCOC(=O)c1ccc(O)cc1 [n-Propyl-4-hydroxybenzoate]	173	8.13	
